The results in this text go back to patent US20100286035A1, “NEUROMEDIN U DERIVATIVE” (Takeda Pharmaceutical Company Limited, priority 2007, published 2010).

Common to all, as to format: in vivo
Test [1] deals with male C57BL/6J mice. Kind of test: Test Example 8: antifeedant activity of NMU-8 PEG conjugate in mice. To be noted: 100 nmol/kg intraperitoneally, mice fasted for 16 hours (FIG. 9). The method, then:
7 weeks old male C57BL/6J mice delivered from the Japan Charles River Company were raised for 5 to 10 days after delivery under a feeding environment regulated for temperature and humidity with lighting time (25° C., 12 hours of lighted period and 12 hours of dark period, light was lit at 8:00). Four animals were placed in one cage. After handling the mice for 5 to 8 days, the animals were housed singly in each cage where a floor mesh was spread and acclimated by intraperitoneal injection for 3 days prior to the administration of a peptide (conjugate). The animals acclimated were fasted for 16 hours from 18:00 prior to the administration of the peptide (conjugate). However, the animals has free access to drinking water). Subsequently, a peptide (conjugate) dissolved in physiological saline solution was intraperitoneally injected to the mice, namely 24.3 μM PEG30k (ACP)-NMU-8 [14], 24.3 μM (PEG20k)2 (ACP)-NMU-8 [29], 24.3 μM PEG30k (AB)-NMU-8 [11], 24.3 μM (PEG20k)2 (AB)-NMU-8 [26], 24.3 μM PEG30k (NH-AB)-NMU-8 [42], 24.3 μM PEG30k (SMCC)-NMU-8 [4] were administered intraperitoneally at 10:00 on the day of administration to the mice such that the dosage of each solution (100 μl) was 100 nmol/kg. After the injection of the peptide (conjugate) solution, MF feed which had been weighed (Oriental Yeast Industry) was given freely to the mice. Further, the residual amount of the feed was measured after 3, 6 and 24 hours. The food intakes at 3, 6 and 24 hours were calculated by subtracting the residual amount of the feed after 3, 6 and 24 hours from the amount of the feed that was originally given.

The test system of test [2] is male C57BL/6J mice. The test can be described thus: Test Example 1: antifeedant activity of NMU-23 and NMS in mice. To be noted: 3 mg/kg intraperitoneally, mice fasted for 16 hours. The protocol:
7 weeks old male C57BL/6J mice (mean bodyweight: 24 g) delivered from the Japan Charles River Company were raised for 5 to 7 days after the delivery under a feeding environment regulated for temperature and humidity with lighting time (25° C., 12 hours of lighted period and 12 hours of dark period, light was lit at 8:00). Four animals were placed in one cage. After handling the mice for 5 to 8 days, the animals were housed singly in each cage where a floor mesh was spread and acclimated by intraperitoneal injection for 3 days prior to the administration of a peptide. The animals acclimated were fasted for 16 hours from 18:00 prior to the administration of the peptide. However, the animals had free access to drinking water. Subsequently, a peptide, namely 720 μg/ml rat NMU-23 (peptide Institution) [Sequence No. 5], or rat NMS (Bachem) [Sequence No. 9] dissolved in physiological saline solution was intraperitoneally injected to the mice such that the dosage of each solution (100 μl) was 3 mg/kg at 10:00 on the day of administration. […] Further, the residual amount of the feed was measured after 3, 6 and 24 hours. The food intakes at 3, 6 and 24 hours were calculated by subtracting the residual amount of the feed after 3, 6 and 24 hours from the amount of the feed that was originally given. […]

In test [3] the test system is male C57BL/6J mice. Kind of test: Test Example 2: antifeedant activity of NMU-23 and NMU-8 in mice. The method, then:
(§1) 7 weeks old male C57BL/6J mice (mean bodyweight: 25 g) delivered from the Japan Charles River Company were raised for 5 to 10 days after delivery under a feeding environment regulated for temperature and humidity with lighting time (25° C., 12 hours of lighted period and 12 hours of dark period, light was lit at 8:00). Four animals were placed in one cage. After handling the mice for 5 to 8 days, the animals were housed singly in each cage where a floor mesh was spread and acclimated by intraperitoneal injection for 3 days prior to the administration of a peptide. The animals acclimated were fasted for 16 hours from 18:00 prior to the administration of the peptide. However, the animals had free access to drinking water. […] After the injection of the peptide solution, MF feed which had been weighed (Oriental Yeast Industry) was given freely to the mice. Further, the residual amount of the feed was measured after 3, 6 and 24 hours. The food intakes at 3, 6 and 24 hours were calculated by subtracting the residual amount of the feed after 3, 6 and 24 hours from the amount of the feed that was originally given.
[In FIG. 2, * and ** tested by T-tests indicated to be lower at the levels of significance of 0.05 and 0.01 (P<0.05 and P<0.01]

Test [4] relates to male C57BL/6J mice. The test can be described thus: Test Example 6: antifeedant activity of NMU-8 PEG conjugate in mice. To be noted: 100 nmol/kg intraperitoneally, mice fasted for 16 hours (FIG. 7). The protocol:
as §1, with “mice” for “mice (mean bodyweight: 25 g)”, “peptide (conjugate).” for “peptide.”, “water).” for “water.”, “peptide (conjugate)” for “peptide”

For test [5], the system named is male C57BL/6J mice. Kind of test: Test Example 7: antifeedant activity of NMU-8 PEG conjugate in mice. To be noted: 10 nmol/kg intraperitoneally, mice fasted for 16 hours (FIG. 8). The protocol:
7 weeks old male C57BL/6J mice delivered from the Japan Charles River Company were raised for 5 to 10 days after delivery under a feeding environment regulated for temperature and humidity with lighting time (25° C., 12 hours of lighted period and 12 hours of dark period, light was lit at 8:00). Four animals were placed in one cage. After handling the mice for 5 to 8 days, the animals were housed singly in each cage where a floor mesh was spread and acclimated by intraperitoneal injection using a syringe (micro injector, syringe for insulin administration, Terumo) for 3 days prior to the administration of a peptide (conjugate). The animals acclimated were fasted for 16 hours from 18:00 prior to the administration of the peptide (conjugate). However, the animals were free access to drinking water). Subsequently, a peptide dissolved in physiological saline solution (conjugate) namely 2.51 μM PEG30k-NMU-8 [5], 2.51 μM PEG30k-Cys-NMU-8 [6], 2.51 μM PEG30k-(Traut)-NMU-8 [7], 2.51 μM PEG30k (SMCC)-NMU-8 [4] were administered intraperitoneally at 10:00 on the day of administration to the mice such that the dosage of each solution (100 μl) was 10 nmol/kg. After the injection of the peptide (conjugate) solution, MF feed which had been weighed (Oriental Yeast Industry) was given freely to the mice. Further, the residual amount of the feed was measured after 3, 6 and 24 hours. The food intakes at 3, 6 and 24 hours were calculated by subtracting the residual amount of the feed after 3, 6 and 24 hours from the amount of the feed that was originally given.

For test [6], the system named is male C57BL/6J mice. The test can be described thus: Test Example 4: antifeedant activity of NMU-8 PEG conjugate in mice. To be noted: 100 nmol/kg intraperitoneally, mice fasted for 16 hours (FIG. 5). The protocol: 7 weeks old male C57BL/6J mice delivered from the Japan Charles River Company were raised for 5 to 10 days after delivery under a feeding environment regulated for temperature and humidity with lighting time (25° C., 12 hours of lighted period and 12 hours of dark period, light was lit at 8:00). Four animals were placed in one cage. After handling the mice for 5 to 8 days, the animals were housed singly in each cage where a floor mesh was spread and acclimated by intraperitoneal injection for 3 days prior to the administration of a peptide (conjugate). The animals acclimated were fasted for 16 hours from 18:00 prior to the administration of the peptide (conjugate). However, the animals had free access to drinking water). Subsequently, a peptide dissolved in physiological saline solution (conjugate) was intraperitoneally injected into the mice, namely 24.2 μM PEG30k (GMBS)-NMU-8 [1], 24.2 μM PEG30k (EMCS)-NMU-8 [2], 24.2 μM PEG30k (KMUS)-NMU-8 [3], 24.2 μM PEG30k (SMCC)-NMU-8 [4] were administered intraperitoneally at 10:00 on the day of administration to the mice such that the dosage of each solution (100 μl) was 100 nmol/kg. After the injection of the peptide (conjugate) solution, MF feed which had been weighed (Oriental Yeast Industry) was given freely to the mice. Further, the residual amount of the feed was measured after 3, 6 and 24 hours. The food intakes at 3, 6 and 24 hours were calculated by subtracting the residual amount of the feed after 3, 6 and 24 hours from the amount of the feed that was originally given.

In test [7] the test system is male C57BL/6J mice. Kind of test: Test Example 5: antifeedant activity of NMU-8 PEG conjugate in mice. To be noted: 10 nmol/kg intraperitoneally, mice fasted for 16 hours (FIG. 6). The protocol: 7 weeks old male C57BL/6J mice delivered from the Japan Charles River Company were raised for 5 to 10 days after delivery under a feeding environment regulated for temperature and humidity with lighting time (25° C., 12 hours of lighted period and 12 hours of dark period, light was lit at 8:00). Four animals were placed in one cage. After handling the mice for 5 to 8 days, the animals were housed singly in each cage where a floor mesh was spread and acclimated by intraperitoneal injection using a syringe (micro injector, syringe for insulin administration, Terumo) for 3 days prior to the administration of a peptide (conjugate). The animals acclimated were fasted for 16 hours from 18:00 prior to the administration of the peptide (conjugate). However, the animals had free access to drinking water). Subsequently, a peptide dissolved in physiological saline solution (conjugate) namely 2.39 μM PEG30k (GMBS)-NMU-8 [1], 2.39 μM PEG30k (EMCS)-NMU-8 [2], 2.39 μM PEG30k (KMUS)-NMU-8 [3], 2.39 μM PEG30k (SMCC)-NMU-8 [4] were administered intraperitoneally at 10:00 on the day of administration to the mice such that the dosage of each solution (100 μl) was 10 nmol/kg. After the injection of the peptide (conjugate) solution, MF feed which had been weighed (Oriental Yeast Industry) was given freely to the mice. Further, the residual amount of the feed was measured after 3, 6 and 24 hours. The food intakes at 3, 6 and 24 hours were calculated by subtracting the residual amount of the feed after 3, 6 and 24 hours from the amount of the feed that was originally given.

Where no end group is shown, it is not given here.

On to PEG30k(AB)-NMU-8, for which, in test [1], the “intakes of the feed at 3, 6 and 24 hours” value is “significantly suppressed”. Turning to “Tyr-Lys-Val-Asn-Glu-Tyr-Gln-Gly-Pro-Val-Ala-Pro-Ser-Gly-Gly-Phe-Phe-Leu-Phe-Arg-Pro-Arg-Asn-NH2 (YKVNEYQGPVAPSGGFFLFRPRN-NH2; listed as Rattus norvegicus) [rat NMU-23]”, the “intakes of the feed at 3, 6 and 24 hours” value in test [2] is “significantly suppressed”. Further, in test [3] (3 mg/kg intraperitoneally, mice fasted for 16 hours), the “intakes of the feed at 3 and 6 hours” value is recorded as “significantly suppressed”. Besides, the “antifeedant activity via peripheral administration” value in test [3] (peripheral administration) is “expresses an antifeedant activity”. Regarding PEG30k-NMU-8, the “intakes of the feed at 3, 6 and 24 hours” value in test [4] and in test [5] was “significantly suppressed” each time.

With PEG30k(EMCS)-NMU-8, the “intakes of the feed at 3, 6 and 24 hours” value in test [6] and in test [7] was “significantly suppressed” in each case. As to (PEG20k)2(AB)-NMU-8, the “intakes of the feed at 3, 6 and 24 hours” value in test [1] is listed as “significantly suppressed”. Regarding “PEG30k-Cys-NMU-8 (C(PEG 30 kDa)FFLFRPRN-NH2)”, the “intakes of the feed at 3, 6 and 24 hours” value in test [4] and in test [5] was “significantly suppressed” throughout. Take PEG30k(Traut)-NMU-8: the “intakes of the feed at 3, 6 and 24 hours” value in test [4] and in test [5] was “significantly suppressed” each time.

For the substance PEG30k(GMBS)-NMU-8, the “intakes of the feed at 3, 6 and 24 hours” value in test [6] and in test [7] was “significantly suppressed” in each case. With PEG30k(KMUS)-NMU-8, the “intakes of the feed at 3, 6 and 24 hours” value in test [6] and in test [7] was “significantly suppressed” each time. (PEG20k)2(ACP)-NMU-8: in test [1], the “intakes of the feed at 3, 6 and 24 hours” value is “significantly suppressed”.

Turning to “rat NMS: rat neuromedin S (Bachem) [Sequence No. 9] (LPRLLHTDSRMATIDFPKKDPTTSLGRPFFLFRPRN-NH2; listed as Rattus norvegicus)”, in test [2], the “intakes of the feed at 3, 6 and 24 hours” value was “significantly suppressed”. On to PEG30k(ACP)-NMU-8, for which the “intakes of the feed at 3, 6 and 24 hours” value in test [1] is “significantly suppressed”. As to PEG30k(SMCC)-NMU-8, the “intakes of the feed at 3, 6 and 24 hours” value in test [6], in test [7], in test [4], in test [5] and in test [1] was “significantly suppressed” throughout.
